Measurements from patent publication US10167259B2, “Allosteric inhibitors of proteasome and methods of use thereof” (THE BOARD OF REGENTS OF THE UNIVERSITY OF TEXAS SYSTEM, priority 2013, dated 2019).
Each block holds one compound with its values, some of them ahead of it.

Experiments:
[1] = system: chymotrypsin-like activity of the core particle (CP; 20S); assay: Inhibition of chymotrypsin-like peptidase activity of the proteasome core particle
[2] = system: core proteasome α face (gate conformers); assay: Atomic force microscopy (AFM) imaging of core proteasome gate conformers; settings: FIG. 1E
[3] = Solubility in solvents; type: physicochemical
[4] = molecular target: mTOR (Homo sapiens, UniProt P42345); assay: mTOR activity in HeLa cells (Western blot with anti-phosphoS6 antibodies); type: cell-based; settings: up to 100 nM, FIG. 3B
[5] = system: proteasome chymotrypsin-like activity in Mcf7 lysate; assay: Total chymotrypsin-like activity of the proteasome in cell lysates; type: biochemical
Experimental: (§1) The in vitro effects of the compound B1 are also detectable in cell lysates (FIGS. 3A-E). The total chymotrypsin-like activity of the proteasome in the Mcf7 and Mcf10A lysates was measured. […] Also, B1 appears to be stable in the presence of the whole cell lysate or the purified core particle (FIG. 3C).

[6] = system: polyubiquitinated proteins in MDA-MB-231 cells; assay: Accumulation of polyubiquitinated proteins in treated MDA-MB-231 cells (Western blot, FK-1); type: cell-based; settings: MDA-MB-231, 24 hrs, 160 nM; FIG. 3E
[7] = system: multiple myeloma RPMI8226 cells; assay: Growth and viability of multiple myeloma RPMI8226 cells; type: cell-based; settings: B1 alone
[8] = system: proteasome (20S and 26S) in multiple myeloma cells; assay: Proteasome activity in lysates of treated cultured multiple myeloma cells; type: cell-based
[9] = system: MCF-10A cells; type: cell-based; settings: 160 nM; FIG. 3D
[10] = molecular target: 26S proteasome assembly; assay: Inhibition of proteinase activity of the 26S proteasome (casein-BODIPY degradation); settings: read-out: IC50, inhibition of proteinase activity of the 26S proteasome assembly; model substrate casein-BODIPY; FIG. 1C
[11] = molecular target: core particle (20S) activated by regulatory particle 19S; assay: In vitro activation of the core by purified regulatory particle 19S (26S reconstruction); type: biochemical; settings: FIG. 2E; read-out: IC50, interference with in vitro activation of the core by purified regulatory particle 19S
From the text: (§2) The grooves are utilized by Rpt2, Rpt3 and Rpt5 subunits that anchor the regulatory particle to the core particle (Lander, et al., 2009). The anchoring C-terminal tails of Rpt2 and Rpt5 subunits are responsible for core particle gate opening and activation (Lander, et al., 2009). Activation of the core by both Rpt2 and Rpt5 tails is affected by B1 (FIG. 2C). The groove accommodating the C-terminal tail of Rpt2 subunit may be a primary docking place for B1, or B1 may allosterically affect binding of Rpt2 C-terminal tail with an exceptionally high efficiency (FIG. 2D). In vitro reconstruction of the 26S proteasome assembly from the core particle (20S) and regulatory particle (19S) components is attenuated by the treatment with B1 (FIG. 2E).

[12] = system: post-glutamyl peptidase of the core particle; assay: Inhibition of post-glutamyl peptidase of the core particle; settings: allosteric, noncompetitive
[13] = Stability in the presence of cell lysate or purified CP (RP-HPLC); type: in vitro ADME; settings: cell lysate 0.5 mg/ml or purified CP, up to 1 h at 37° C., FIG. 3C
Experimental: as §1

[14] = molecular target: core proteasome activated by Rpt2 and Rpt5 tail peptides; assay: Blocking activation of core proteasome chymotrypsin-like activity by Rpt2 and Rpt5 tail peptides; type: biochemical
From the text: as §2

[15] = system: MDA-MB-231 cells; type: cell-based
[16] = system: MCF-7 cells; type: cell-based
[17] = Chou-Talalay, fraction affected >0.3, mostly 1:1 conc. ratio

Compound: COc1cc(/C=C/CCCOC(=O)C2CCCCN2C(=O)C(=O)C2CCCCC2)cc(OC)c1OC (stereo not drawn) [B4]
Inhibitory properties toward the core proteasome after modification of B1 [1]: does not erase the inhibitory properties

Compound: CO[C@@H](C[C@@H]1CC[C@@H](C)[C@](O)(C(=O)C(=O)N2CCCC[C@H]2C(=O)[O-])O1)/C(C)=C/C=C/C=C/[C@@H](C)C[C@@H](C)C(=O)[C@H](OC)[C@H](O)/C(C)=C/[C@@H](C)C(=O)/C=C/[C@H](C)C[C@@H]1CC[C@@H](O)[C@H](OC)C1.[Na+] [seco-rapamycin, reference compound]
Content of open-gate conformers in the treated core particle (AFM) [2]: unusually high content of open-gate conformers

Compound: COc1cc(CCCOC(=O)C2CCCCN2C(=O)C(=O)C2CCCCC2)cc(OC)c1OC (stereo not drawn) [B1]
Effect on mTOR activity [4]: does not inhibit mTOR activity | Inhibition of total chymotrypsin-like activity of the proteasome in Mcf7 lysate [5]: well pronounced | Combined effect with bortezomib on chymotrypsin-like activity of the core particle ([1]; in vitro, FIG. 1D): synergizes with bortezomib | IC50 ([1]; read-out: IC50, inhibition of chymotrypsin-like activity of the core particle, FIG. 1B): 19 nM | Polyubiquitinated proteins in lysates of treated cells [6]: accumulation of polyubiquitinated proteins | Effect on growth of multiple myeloma RPMI8226 cells ([7]; FIG. 3D right): efficiently prevented growth | IC50 ([7]; Homo sapiens, RPMI-8226, FIG. 3D, read-out: IC50, multiple myeloma cultured cells): 59 nM | Effect on open-gate/closed-gate conformers of the core proteasome (AFM) ([2]; B1 treatment (100 nM)): shift toward higher abundance of the open gate conformers | Content of open-gate conformers in the treated core particle (AFM) [2]: unusually high content of open-gate conformers | Total proteasome activity in lysates of treated cells versus DMSO control ([8]; 50 nM B1, model peptide substrate, FIG. 3F left): lower than in control cells | Partition of activities between core particle (20S) and 26S assembly ([8]; 50 nM B1, non-denaturing gels, FIG. 3F right): shifted in the B1-treated cells toward more of the 20S and less of the 26S proteasomes | Cytotoxicity to non-cancerous Mcf10A cells [9]: refractory to the treatment | IC50 [10]: 41 nM | IC50 [11]: 7.8 nM | Effect on post-glutamyl peptidase of the core particle [12]: inhibits | Stability in the presence of cell lysate or purified CP [13]: remains intact | IC50 ([14]; FIG. 2C): ~2 nM | Blocking activation of the core by the Rpt2 tail ([14]; tail present at high, micromolar-range concentrations, FIG. 2D): exceptionally effective | Cytotoxicity to MDA-MB-231 cells ([15]; B1 alone, 160 nM, 24 hrs, trypan blue exclusion, FIG. 3D): cytotoxic | Combination Index (CI) with bortezomib, MDA-MB-231 [15, 17]: below 1 | Cytotoxicity to MCF-7 cells ([16]; B1 alone, 40 nM, 24 hrs, trypan blue exclusion, FIG. 3D): cytotoxic | Combination Index (CI) with bortezomib, MCF-7 [16, 17]: below 1

Other lines, results leading:

Inhibitory properties toward the core proteasome after modification of B1 [1]: does not erase the inhibitory properties | Soluble in [3]: DMSO, CDCl3
Compound: COc1cc(CCCNC(=O)C2CCCCN2C(=O)C(=O)C2CCCCC2)cc(OC)c1OC (stereo not drawn) [B2]

Inhibitory properties toward the core proteasome after modification of B1 [1]: does not erase the inhibitory properties
Compound: COc1cc(CCCCCOC(=O)C2CCCCN2C(=O)C(=O)C2CCCCC2)cc(OC)c1OC (stereo not drawn) [B5]
